{"source": "paper PMC7816213", "about": "(Journal of medicinal chemistry, 2020)", "key": {"Tpl2": {"test_system": "Tpl2", "conditions": "read-out: Tpl2 IC50; Reported by Ni et al; cited from earlier work"}, "Microsomal stability": {"assay": "Microsomal stability", "conditions": "for Microsomal stability (%): % compound remaining in mouse liver microsomes at 30 min"}, "STK17B [1]": {"molecular_target": "T1, STK17B (Homo sapiens, UniProt O94768)", "T1 sequence (O94768 1-372)": "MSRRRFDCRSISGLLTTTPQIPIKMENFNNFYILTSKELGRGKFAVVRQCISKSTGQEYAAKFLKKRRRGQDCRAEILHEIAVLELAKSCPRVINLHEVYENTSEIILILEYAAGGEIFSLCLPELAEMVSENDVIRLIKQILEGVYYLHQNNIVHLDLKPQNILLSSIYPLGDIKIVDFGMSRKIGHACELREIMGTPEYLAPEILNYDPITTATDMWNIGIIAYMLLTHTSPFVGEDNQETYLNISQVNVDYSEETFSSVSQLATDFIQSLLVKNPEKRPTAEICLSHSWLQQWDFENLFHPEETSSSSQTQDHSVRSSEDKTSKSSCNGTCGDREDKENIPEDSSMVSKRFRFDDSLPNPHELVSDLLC", "assay": "NanoBRET target engagement in HEK293 cells, STK17B", "format": "cell-based"}, "STK17B [2]": {"molecular_target": "T1, STK17B", "conditions": "KinaseSeeker IC50, compared with 4"}, "DAPK family": {"test_system": "DAPK family", "conditions": "read-out: IC50 on the DAPK family; cited from earlier work"}, "STK17B [3]": {"molecular_target": "T1, STK17B", "assay": "DiscoverX KINOMEscan binding, STK17B", "conditions": "DiscoverX binding assay"}, "STK17B [4]": {"molecular_target": "T1, STK17B", "assay": "biochemical"}, "STK17A": {"molecular_target": "T2, STK17A (Homo sapiens, UniProt Q9UEE5)", "T2 sequence (Q9UEE5 1-414)": "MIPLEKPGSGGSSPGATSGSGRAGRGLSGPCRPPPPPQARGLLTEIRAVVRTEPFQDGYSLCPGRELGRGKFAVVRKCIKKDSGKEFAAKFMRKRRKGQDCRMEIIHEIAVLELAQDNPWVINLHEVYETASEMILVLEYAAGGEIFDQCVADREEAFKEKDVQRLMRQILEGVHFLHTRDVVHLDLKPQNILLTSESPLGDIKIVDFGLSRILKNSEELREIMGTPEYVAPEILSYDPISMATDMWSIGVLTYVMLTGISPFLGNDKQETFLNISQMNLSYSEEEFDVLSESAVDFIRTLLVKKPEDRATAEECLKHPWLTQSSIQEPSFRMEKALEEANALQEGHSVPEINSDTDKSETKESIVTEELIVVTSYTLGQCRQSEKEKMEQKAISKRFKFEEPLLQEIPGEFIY", "assay": "Eurofins enzyme inhibition assay, STK17A", "format": "biochemical"}, "STK17B [5]": {"molecular_target": "T1, STK17B"}, "[6]": {"molecular_target": "403 wild type human kinases", "assay": "DiscoverX KINOMEscan scanMAX panel", "format": "binding", "conditions": "for kinases with >75% displacement of the immobilized ligand: scanMAX panel of 403 wild type human kinases at 1 μM"}}, "data": [{"compound": "CSc1ccc(-c2cc3ncnc(SCC(=O)O)c3s2)cc1", "note": "[Compound 4, 2-((6-(4-(Methylthio)phenyl)thieno[3,2-d]pyrimidin-4-yl)thio)acetic acid]", "values": [{"measurement": "IC50", "setting": "Tpl2", "result": 3400, "unit": "nM"}, {"measurement": "compound consumed in mice liver microsomes", "setting": "Microsomal stability; After 30 minutes", "result": 100, "unit": "%"}]}, {"compound": "CSc1cccc(-c2cc3ncnc(SCC(=O)O)c3s2)c1", "note": "[Compound 11b, 2-((6-(3-(Methylthio)phenyl)thieno[3,2-d]pyrimidin-4-yl)thio)acetic acid]", "values": [{"measurement": "fold less potent than 4 in the STK17B cell assay", "setting": "STK17B [1]; NanoBRET IC50, compared with 4", "result": "about 2.5 fold"}, {"measurement": "fold less potent than 4 in the STK17B binding assay", "setting": "STK17B [2]", "result": "about 2.5 fold"}]}, {"compound": "COc1ccc(-c2cc3ncnc(SCC(=O)O)c3s2)cc1F", "note": "[Compound 11z, 2-((6-(3-Fluoro-4-methoxyphenyl)thieno[3,2-d]pyrimidin-4-yl)thio)acetic acid]", "values": [{"measurement": "drop in cell potency", "setting": "STK17B [1]; NanoBRET, compared with 11y", "result": 1.3, "unit": "fold"}]}, {"compound": "O=C(O)COc1ncnc2cc(-c3ccc4[nH]ncc4c3)sc12", "note": "[Compound 6, reference compound]", "values": [{"measurement": "IC50", "setting": "Tpl2", "result": 1000, "unit": "nM"}]}, {"compound": "CN1CCN(c2ccc3nc(-c4c(N)c5c(F)cccc5[nH]c4=O)[nH]c3c2)CC1", "note": "[dovitinib]", "values": [{"measurement": "IC50", "setting": "DAPK family", "result": "1000 to 5000", "unit": "nM"}]}, {"compound": "O=C(O)CSc1ncnc2cc(-c3ccc(C4CC4)cc3)sc12", "note": "[Compound 11h, 2-((6-(4-Cyclopropylphenyl)thieno[3,2-d]pyrimidin-4-yl)thio)acetic acid]", "values": [{"measurement": "Microsomal stability (%)", "setting": "Microsomal stability", "result": "> 50", "unit": "%"}]}, {"compound": "O=C(O)CSc1ncnc2cc(-c3cccc(N4CCOCC4)c3)sc12", "note": "[Compound 11o, 2-((6-(3-Morpholinophenyl)thieno[3,2-d]pyrimidin-4-yl)thio)acetic acid]", "values": [{"measurement": "Microsomal stability (%)", "setting": "Microsomal stability", "result": "> 50", "unit": "%"}]}, {"compound": "O=C(O)CSc1ncnc2cc(-c3cc4ccccc4s3)sc12", "note": "[Compound 11s, 2-((6-(Benzo[b]thiophen-2-yl)thieno[3,2-d]pyrimidin-4-yl)thio)acetic acid]", "values": [{"measurement": "selectivity over CAMKK1 and CAMKK2", "setting": "STK17B [3]", "result": "< 10", "unit": "fold"}, {"measurement": "selectivity for STK17B over CAMKK2 in cells", "setting": "STK17B [1]; NanoBRET target engagement assays", "result": "> 10", "unit": "fold"}, {"measurement": "IC50", "setting": "STK17B [4]", "result": "43 ± 3.5", "unit": "nM"}, {"measurement": "IC50", "setting": "STK17A", "result": "5000 to 9000", "unit": "nM"}, {"measurement": "Microsomal stability (%)", "setting": "Microsomal stability", "result": "> 50", "unit": "%"}, {"measurement": "selectivity for STK17B over STK17A", "setting": "STK17B [5]; enzyme assays", "result": "> 100", "unit": "fold"}, {"measurement": "selectivity for STK17B over all of the other kinases tested", "setting": "STK17B [5]; enzyme assays", "result": "> 100", "unit": "fold"}, {"measurement": "kinases with >75% displacement of the immobilized ligand", "setting": "[6]", "result": "Eight"}]}, {"compound": "O=C(O)CSc1ncnc2sc(-c3cc4ccccc4s3)cc12", "note": "[Compound 19g, 2-((6-(Benzo[b]thiophen-2-yl)thieno[2,3-d]pyrimidin-4-yl)thio)acetic acid]", "values": [{"measurement": "fold less active as an inhibitor of STK17B than the chemical probe 11s", "setting": "STK17B [5]; 19g compared to 11s (Table 9)", "result": "> 100", "unit": "fold"}, {"measurement": "kinases with >65% displacement of the immobilized ligand", "setting": "[6]; scanMAX panel at 1 μM", "result": 5}, {"measurement": "kinases with >75% displacement of the immobilized ligand", "setting": "[6]", "result": "no kinase"}]}, {"compound": "O=C(O)CSc1ncnc2cc(-c3ccc(N4CCOCC4)cc3)sc12", "note": "[Compound 11p, 2-((6-(4-Morpholinophenyl)thieno[3,2-d]pyrimidin-4-yl)thio)acetic acid]", "values": [{"measurement": "Microsomal stability (%)", "setting": "Microsomal stability", "result": "> 50", "unit": "%"}]}]}
